{"source": "patent US9295714B2", "about": "“Apparatus and method for transdermal delivery of parathyroid hormone agents” (Alza Corporation, priority 2004, dated 2016)", "key": {"[1]": {"assay": "Pharmacokinetics of hPTH (1-34) after IV, SC and coated microprojection array administration", "assay_type": "in vivo, hairless guinea pig", "conditions": "for dose absorbed/delivered: AUC relative to IV"}, "[2]": {"assay": "Plasma PTH after subcutaneous Forteo vs coated microprojection transdermal delivery", "assay_type": "in vivo, human", "description": "(§1) In this example, transdermal delivery of a PTH-based agent using a coated microprojection member was compared to conventional, subcutaneous delivery of teriparatide PTH (Forteo™). A dose-finding study was conducted with […], young females that received two treatments, separated by at least five days, according to randomly assigned sequence of 20 μg subcutaneous delivery of Forteo™ and 30 μg transdermal delivery of a PTH-based agent by coated microprojection. Bioavailability of transdermally delivered PTH was determined in 20 healthy, young females by administering two treatments, separated by at least five day, according to randomly assigned sequence of 40 μg subcutaneous delivery of Forteo™ and 30 μg transdermal delivery of a PTH-based agent by coated microprojection.\nIn the dose-finding study, two participants dropped out, eleven subjects participated and eight generated usable data. It was determined that three subjects had measurable PTH plasma levels following subcutaneous injection and eight subjects had measurable PTH plasma levels following transdermal delivery."}, "urinary cAMP": {"tested_on": "urinary cAMP", "assay": "Urinary cAMP excretion after subcutaneous vs transdermal delivery", "assay_type": "in vivo, human", "description": "as §1\nFIG. 12 further reflects a preferred pulsatile concentration profile of the PTH agent, i.e., rapid on-set and rapid off-set after reaching Cmax."}, "Solubility in water": {"assay": "Solubility in water", "assay_type": "physicochemical", "conditions": "at pH 5", "text": "Referring now to FIG. 10, there is shown a superposition of the mole ratios for acetic acid and the neutral form of hPTH (1-34). […] At pH 5, negligible amounts of PTH are present as PTH zero net charge (PTH 0). The PTH is also highly soluble in water at concentrations in excess of 20%. During drying and subsequent storage, the free acetic acid will evaporate inherently resulting in formation of the water insoluble PTH 0. Subsequent reconstitution in water will not allow total solubilization of PTH. Accordingly, the use of a low volatility counterion provides a solid soluble formulation of PTH as long as the pH is maintained at least 2.5 pH units, preferably 3 pH units, below the pI of PTH. Preferably, this can be achieved by providing at least about two low volatility counterions to each molecule of PTH."}}}
{"smiles": "CC[C@H](C)[C@H](NC(=O)[C@H](CCC(=O)O)NC(=O)[C@H](CO)NC(=O)[C@@H](NC(=O)[C@@H](N)CO)C(C)C)C(=O)N[C@@H](CCC(N)=O)C(=O)N[C@@H](CC(C)C)C(=O)N[C@@H](CCSC)C(=O)N[C@@H](Cc1cnc[nH]1)C(=O)N[C@@H](CC(N)=O)C(=O)N[C@@H](CC(C)C)C(=O)NCC(=O)N[C@@H](CCCCN)C(=O)N[C@@H](Cc1cnc[nH]1)C(=O)N[C@@H](CC(C)C)C(=O)N[C@@H](CC(N)=O)C(=O)N[C@@H](CO)C(=O)N[C@@H](CCSC)C(=O)N[C@@H](CCC(=O)O)C(=O)N[C@@H](CCCN=C(N)N)C(=O)N[C@H](C(=O)N[C@@H](CCC(=O)O)C(=O)N[C@@H](Cc1c[nH]c2ccccc12)C(=O)N[C@@H](CC(C)C)C(=O)N[C@@H](CCCN=C(N)N)C(=O)N[C@@H](CCCCN)C(=O)N[C@@H](CCCCN)C(=O)N[C@@H](CC(C)C)C(=O)N[C@@H](CCC(N)=O)C(=O)N[C@@H](CC(=O)O)C(=O)N[C@H](C(=O)N[C@@H](Cc1cnc[nH]1)C(=O)N[C@@H](CC(N)=O)C(=O)N[C@@H](Cc1ccccc1)C(=O)O)C(C)C)C(C)C", "note": "[hPTH (1-34)]", "values": [{"measurement": "Fraction dose absorbed/delivered (%)", "setting": "[1]; IV, 22.5 μg, hairless guinea pig", "result": 100, "unit": "%"}, {"measurement": "dose absorbed/delivered", "setting": "[1]; SC, 19.5 μg", "result": "8.2 ± 2.9", "unit": "µg"}, {"measurement": "dose absorbed/delivered", "setting": "[1]; microprojection array, 40.0 μg", "result": "6.6 ± 1.8", "unit": "µg"}, {"measurement": "subjects with measurable PTH plasma levels", "setting": "[2]; bioavailability study, subcutaneous delivery (Forteo 40 μg), 20 subjects completed", "result": 15, "unit": "subjects"}, {"measurement": "subjects with measurable PTH plasma levels", "setting": "[2]; bioavailability study, transdermal delivery 30 μg, 20 subjects completed", "result": 20, "unit": "subjects"}, {"measurement": "subjects with measurable PTH plasma levels", "setting": "[2]; dose-finding study, subcutaneous injection (Forteo 20 μg), eight with usable data", "result": "three"}, {"measurement": "subjects with measurable PTH plasma levels", "setting": "[2]; dose-finding study, transdermal delivery 30 μg, eight with usable data", "result": "eight"}, {"measurement": "biological activity as evidenced by urinary cAMP excretion", "setting": "urinary cAMP", "result": "comparable to that following subcutaneous delivery"}, {"measurement": "solubility in water (concentration)", "setting": "Solubility in water", "result": "> 20", "unit": "%"}]}
